Results from PubChem BioAssay (NCI).
Where “and” joins values, the source holds several entries; their conditions need not be identical. Equal values may be shown once.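 96-well plates; 48 h exposure; 5 concentrations. Endpoints by linear interpolation between flanking doses. Not reached: highest tested concentration assigned. At the GI50, growth is halved. TGI: concentration producing complete growth inhibition.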

Columns and labels:
Test in all cases: inhibition of tumour cell growth, NCI panel, 48 h
COLO 205 colon = tested on: COLO 205 colon
HOP-92 NSCLC = tested on: HOP-92 NSCLC
HS 578T breast = tested on: HS 578T breast
K-562 leukemia = tested on: K-562 leukemia
LOX IMVI melanoma = tested on: LOX IMVI melanoma
MCF7 breast = tested on: MCF7 breast
MDA-MB-231 breast = tested on: MDA-MB-231 breast
OVCAR-5 ovarian = tested on: OVCAR-5 ovarian
TK-10 renal = tested on: TK-10 renal
SR leukemia = tested on: SR leukemia

SMILES	GI50 (COLO 205 colon) [µM]	TGI (COLO 205 colon)	GI50 (HOP-92 NSCLC) [µM]	TGI (HOP-92 NSCLC) [µM]	GI50 (HS 578T breast) [µM]	TGI (HS 578T breast) [µM]	GI50 (K-562 leukemia) [µM]	TGI (K-562 leukemia)	GI50 (LOX IMVI melanoma) [µM]	TGI (LOX IMVI melanoma)	GI50 (MCF7 breast) [µM]	TGI (MCF7 breast) [µM]	GI50 (MDA-MB-231 breast) [µM]	TGI (MDA-MB-231 breast) [µM]	GI50 (OVCAR-5 ovarian) [µM]	TGI (OVCAR-5 ovarian) [µM]	GI50 (TK-10 renal) [µM]	TGI (TK-10 renal)	TGI (SR leukemia)	GI50 (SR leukemia) [µM]
CN(C)CCCC1(c2ccc(F)cc2)OCc2cc(-c3csc4ccccc34)ccc21 (stereo unspecified)	1.73	3.79 µM	1.4	2.95	1.74	3.76	1.72	3.45 µM	1.65	3.16 µM	1.67	3.27	1.34	2.68	1.55	2.95	1.6	3.16 µM	–	–
COc1ccc2cc3n(c(=O)c2c1)CCc1c-3cc(OC)c(OC)c1OC	–	> 100 µM	–	> 100	–	–	–	> 100 µM	–	–	–	–	–	–	–	> 100	–	> 100 µM	> 100 µM	–
CN(C)[C@@H]1C(=O)C(C(=O)NCc2nc3[nH]cnc(=S)c3[nH]2)=C(O)[C@@]2(O)C(=O)C3=C(O)c4c(O)cccc4[C@@](C)(O)[C@H]3C[C@@H]12	3.87	> 100 µM	–	–	> 100	> 100	1.41	> 100 µM	1.23	> 100 µM	1.57	> 100	–	–	> 100	> 100	–	–	> 100 µM	1.92
Nc1ccccc1C(=O)/C=C/c1ccccc1O	–	> 100 µM	–	81.6	–	–	–	93.4 µM	–	> 100 µM	–	–	–	–	–	> 100	–	> 100 µM	–	–
COc1ccc(-c2c(Nc3ccccn3)nc3c(C4=CCCCC4)c(-c4ccccc4)[nH]n3c2=O)cc1	2.34	> 100 µM	1.45	9.26	3.32	33.1	–	–	1.8	> 100 µM	1.81	15.5	2.73	16.5	5.52	> 100	4.82	19.1 µM	–	–
CC(C)(C)C1CC[C@H]2c3c([nH]c4ccccc34)[C@H]3C(=O)N(c4ccc(F)cc4)C(=O)[C@H]3[C@H]2C1 (stereo partly specified)	–	30.4 µM	–	48.1	–	–	–	42.5 µM	–	35.2 µM	–	–	–	–	–	80	–	30.8 µM	–	–
COC1=CC(=O)C(O)=C(CC2(C)C(C)CCC3(C)C2CCCC3(C)C)C1=O (stereo unspecified)	–	19.2 µM	–	7.63	–	–	–	> 100 µM	–	23.2 µM	–	–	–	–	–	21.9	–	37.2 µM	12.8 µM	–
O=C(O)c1cn(C2CC2)c2cc(N3CCN(C(=O)N(c4ccccc4)c4nc(-c5ccccc5)cs4)CC3)c(F)cc2c1=O	–	–	0.241	0.948	0.393	> 100	–	–	–	–	0.358	> 100	–	–	–	–	1.09	32.6 µM	–	–
CC(C)(C)C1CCC(O)(c2ccccc2)CC1 (stereo unspecified)	–	> 100 µM and 31.7 µM	–	–	–	–	–	> 100 µM and 68.2 µM	–	> 100 µM and 30.3 µM	–	–	–	–	–	> 100	–	> 100 µM and 53.1 µM	> 100 µM and 33 µM	–
O=C(CCN1CCOCC1)Nc1ccc(Cn2nnc3c2C(=O)c2nnn(Cc4ccc(NC(=O)CCN5CCOCC5)cc4)c2C3=O)cc1	0.645	2.13 µM	2.36	4.64	3.03	24.9	1.81	> 100 µM	0.678	3.37 µM	0.271	0.978	–	–	> 100	> 100	> 100	> 100 µM	7.62 µM	1.68
CC1(C)CC(=O)C(C(=O)Nc2cccs2)=C(O)C1	–	33.7 µM	–	68.2	–	–	–	> 100 µM	–	> 100 µM	–	–	–	–	–	> 100	–	> 100 µM	> 100 µM	–
C=CCN(CC=C)Cc1c[nH]c2ccccc12	18.4	> 100 µM	> 100	> 100	–	–	50.2	> 100 µM	27.4	> 100 µM	3	19.7	23.4	54.8	17	34.6	6.93	38.7 µM	> 100 µM	30.3
CNS(=O)(=O)NNS(=O)(=O)c1ccc(C)cc1	–	> 100 µM	–	> 100	–	–	–	> 100 µM	–	–	–	–	–	–	–	> 100	–	> 100 µM	> 100 µM	–
c1cc(OCCCCCOc2cccc(-c3nc4ccccc4[nH]3)c2)cc(-c2nc3ccccc3[nH]2)c1	1.47	2.79 µM	1.09	4.68	2.56	8.51	–	–	2.19	6.84 µM	–	–	4.08	30.9	2.76	> 100	3.88	> 100 µM	–	–
CN(C)c1ccc(/C=c2/sc3nc(=O)c(-c4ccccc4NC(=O)C(F)(F)F)nn3c2=O)cc1	–	> 100 µM	–	> 100	–	–	–	> 100 µM	–	> 100 µM	–	–	–	–	–	> 100	–	> 100 µM	> 100 µM	–
CC(C)(C)c1ccc(OCCOCCOc2ccc(C(C)(C)C)cc2S(N)(=O)=O)c(S(N)(=O)=O)c1	–	> 100 µM	–	> 100	–	–	–	> 100 µM	–	> 100 µM	–	–	–	–	–	> 100	–	> 100 µM	–	–
N#Cc1c(CC(=O)O)cc(=O)n2c1[nH]c1ccccc12	–	> 100 µM	–	–	–	–	–	> 100 µM	–	> 100 µM	–	–	–	–	–	> 100	–	> 100 µM	> 100 µM	–
O=C(/C=C(\[O-])c1ccccc1)CCCCCCC(=O)/C=C(\[O-])c1ccccc1.O=C(/C=C(\[O-])c1ccccc1)CCCCCCC(=O)/C=C(\[O-])c1ccccc1.O=C(/C=C(\[O-])c1ccccc1)CCCCCCC(=O)/C=C(\[O-])c1ccccc1.[Y+3].[Y+3]	> 50	> 50 µM	17	> 50	–	–	17.7	> 50 µM	> 50	> 50 µM	–	–	–	–	> 50	> 50	> 50	> 50 µM	–	–
O=[N+]([O-])c1ccc(/C=C(/c2ccc([N+](=O)[O-])o2)S(=O)(=O)c2ccccc2)cc1	–	> 100 µM	–	> 100	–	> 100	–	> 100 µM	–	–	–	> 100	–	88.2	–	> 100	–	> 100 µM	36.5 µM	–
CCCCCNC(=O)CCCCCCCCCCCNC(=O)CCCCCCCCCCN1C=CC(=CC=C2C=CC(=O)C=C2)C=C1	–	28.6 µM	–	55.1	–	–	–	> 100 µM	–	> 100 µM	–	–	–	–	–	> 100	–	–	> 100 µM	–
